# Laboratory results from patent US20090054398A1, “CHEMICAL COMPOUNDS” (ASTRAZENECA AB, priority 2006, published 2009).
# Counter-ions that a name gives are not always drawn.
# System: Notch 1 intracellular domain
# Assay: Ability of compounds to block Notch signaling: Western analysis of active Notch 1 protein (Notch 1 intracellular domain) in SUP-T1 cells
# Format: cell-based
# Conditions: Homo sapiens; T lymphoblast SUP-T1 cells, 12-16 h with compound; Western blot with antibody to cleaved Notch 1 (Val 1744), band of approximately 100 kDa; read-out: estimated IC50
# Experimental: T lymphoblast SUP-T1 cells (CRL-1942, ATCC, Manassas, Va.) are routinely cultured in culture medium comprising RPMI-1640 (Invitrogen, Carlsbad, Calif.) supplemented with 10% Fetal Bovine serum (Sigma Chemical Co., St. Louis, Mo.) and 2 mM glutamine (Invitrogen, Carlsbad, Calif.) and grown at 37° C. at 95%/5% (v/v) air/CO2 in 95% relative humidity (standard cell culture conditions). Cells in culture medium are plated into flat-bottomed tissue culture plates (Corning Costar, Acton, Mass.) Subsequently, a compound of Formula (1) or vehicle (e.g., 0.1% (v/v) DMSO) may be added and plates are incubated for a further 12-16 h under standard cell culture conditions. Subsequently, the presence of active Notch 1 protein (Notch 1 intracellular domain) is determined by Western analysis according to conventional methods. Immunoblotting is performed using a primary antibody to cleaved Notch 1 (Val 1744; Cell Signaling Technology, Danvers, Mass.) and a goat anti-rabbit horseradish peroxidase conjugated secondary antibody (Santa Cruz Biotechnology, Santa Cruz, Calif.). For Western blotting, equal amounts of protein extracted from each sample (20 μg) are loaded into pre-cast 4-12% NuPAGE Tris-Glycine gels (Invitrogen, Carlsbad, Calif.). Proteins are separated by SDS-PAGE and transferred electrophoretically to polyvinylidene diflouride membranes (Invitrogen, Carlsbad, Calif.) using a semi-dry blotter. The membrane is washed briefly in Tris-buffered saline (TBS) (Bio-Rad Laboratories, Hercules, Calif.) and blocked for 1 h in TBS supplemented with 0.05% (v/v) Tween 20 (TBST) and 5% (w/v) dried milk, before being incubated for ˜12 h with primary antibody in TBS supplemented with 0.05% (v/v) Tween 20 (TBST) and 5% (w/v) dried milk. Following washing in TBST, the membrane is incubated with secondary antibody as indicated prior to visualization via enhanced chemiluminescent detection using DuraWest reagent (Pierce Biotechnology, Rockford, Ill.) and is detected with Amersham Hyperfilm MP according to the manufacturer's instructions. […]
row,IC50,SMILES
1,3.98 nM,"C[C@H](NC(=O)Cc1cc(F)cc(F)c1)C(=O)N[C@@H]1C(=O)Nc2cc(F)ccc2O[C@@H]1c1ccccc1 [Example 75, N^2-[(3,5-Difluorophenyl)acetyl]-N^1-[(2R,3S)-7-fluoro-4-oxo-2-phenyl-2,3,4,5-tetrahydro-1,5-benzoxazepin-3-yl]-L-alaninamide]"
2,16.6 nM,"C[C@H](NC(=O)Cc1ccccc1F)C(=O)N[C@@H]1C(=O)Nc2ccccc2O[C@@H]1c1ccccc1 [Example 114, N^2-[(2-Fluorophenyl)acetyl]-N^1-[(2R,3S)-4-oxo-2-phenyl-2,3,4,5-tetrahydro-1,5-benzoxazepin-3-yl]-L-alaninamide]"
3,50.1 nM,"C[C@H](NC(=O)Cc1cc(F)cc(F)c1)C(=O)N[C@@H]1C(=O)Nc2ccccc2S[C@@H]1c1ccsc1 [Example 100, N^2-[(3,5-Difluorophenyl)acetyl]-N^1-[(2R,3R)-4-oxo-2-(3-thienyl)-2,3,4,5-tetrahydro-1,5-benzothiazepin-3-yl]-L-alaninamide]"

# System: not given
# Assay: not given
# Conditions: not given
row,melting point,SMILES
1,184 to 195 °C,"C[C@H](NCCc1ccccc1)C(=O)N[C@@H]1C(=O)Nc2ccccc2S[C@@H]1c1ccccc1 (as salt: hydrochloride) [Example 98, N^1-[(2R,3R)-4-Oxo-2-phenyl-2,3,4,5-tetrahydro-1,5-benzothiazepin-3-yl]-N^2-(2-phenylethyl)-L-alaninamide]"
2,110 to 115 °C,"CC(C)[C@H](NC(=O)Cc1cc(F)cc(F)c1)C(=O)N[C@@H]1C(=O)Nc2ccccc2S[C@@H]1c1ccccc1 [Example 107, N^2-[(3,5-Difluorophenyl)acetyl]-N^1-[(2R,3R)-4-oxo-2-phenyl-2,3,4,5-tetrahydro-1,5-benzothiazepin-3-yl]-L-valinamide]"
3,122 to 136 °C,"C[C@H](NC(=O)Cc1ccccc1)C(=O)N[C@@H]1C(=O)Nc2ccccc2O[C@@H]1c1ccccc1 [Example 113, N^1-[(2R,3S)-4-Oxo-2-phenyl-2,3,4,5-tetrahydro-1,5-benzoxazepin-3-yl]-N^2-(phenylacetyl)-L-alaninamide]"
4,114 to 124 °C,"C[C@H](NC(=O)Cc1ccccc1)C(=O)N[C@@H]1C(=O)Nc2ccccc2S[C@@H]1c1ccccc1 [Example 97, N^1-[(2R,3R)-4-Oxo-2-phenyl-2,3,4,5-tetrahydro-1,5-benzothiazepin-3-yl]-N^2-(phenylacetyl)-L-alaninamide]"
5,125 to 130 °C,"C[C@H](NC(=O)Cc1cc(F)cc(F)c1)C(=O)N[C@@H]1C(=O)Nc2ccccc2S[C@@H]1c1ccco1 [Example 101, N^2-[(3,5-Difluorophenyl)acetyl]-N^1-[(2S,3R)-2-(2-furyl)-4-oxo-2,3,4,5-tetrahydro-1,5-benzothiazepin-3-yl]-L-alaninamide]"
6,85 to 90 °C,"O=C(Cc1cc(F)cc(F)c1)N[C@@H](Cc1cc2ccccc2[nH]1)C(=O)N[C@@H]1C(=O)Nc2ccccc2S[C@@H]1c1ccccc1 [Example 110, N^2-[(3,5-Difluorophenyl)acetyl]-3-(1H-indol-2-yl)-N^1-[(2R,3R)-4-oxo-2-phenyl-2,3,4,5-tetrahydro-1,5-benzothiazepin-3-yl]-L-alaninamide]"
7,115 to 120 °C,"N[C@@H](Cc1ccccc1)C(=O)N(C(=O)Cc1cc(F)cc(F)c1)[C@@H]1C(=O)Nc2ccccc2S[C@@H]1c1ccccc1 [Example 105, N-[(3,5-Difluorophenyl)acetyl]-N-[(2R,3R)-4-oxo-2-phenyl-2,3,4,5-tetrahydro-1,5-benzothiazepin-3-yl]-L-phenylalaninamide]"
8,130 to 140 °C,"C[C@H](NC(=O)Cc1ccc(F)cc1)C(=O)N[C@@H]1C(=O)Nc2ccccc2O[C@@H]1c1ccccc1 [Example 116, N^2-[(4-Fluorophenyl)acetyl]-N^1-[(2R,3S)-4-oxo-2-phenyl-2,3,4,5-tetrahydro-1,5-benzoxazepin-3-yl]-L-alaninamide]"
9,125 to 130 °C,"O=C(Cc1cc(F)cc(F)c1)NCC(=O)N[C@@H]1C(=O)Nc2ccccc2S[C@@H]1c1ccccc1 [Example 106, N^2-[(3,5-Difluorophenyl)acetyl]-N^1-[(2R,3R)-4-oxo-2-phenyl-2,3,4,5-tetrahydro-1,5-benzothiazepin-3-yl]glycinamide]"
10,115 to 135 °C,"C[C@H](NC(=O)Cc1ccccc1F)C(=O)N[C@@H]1C(=O)Nc2ccccc2O[C@@H]1c1ccccc1 [Example 114, N^2-[(2-Fluorophenyl)acetyl]-N^1-[(2R,3S)-4-oxo-2-phenyl-2,3,4,5-tetrahydro-1,5-benzoxazepin-3-yl]-L-alaninamide]"
11,128 to 133 °C,"C[C@H](NC(=O)Cc1cc(F)cc(F)c1)C(=O)N[C@@H]1C(=O)NCCS[C@@H]1c1ccccc1 [Example 7, N^2-[(3,5-Difluorophenyl)acetyl]-N^1-[(6R,7R)-5-oxo-7-phenyl-1,4-thiazepan-6-yl]-L-alaninamide]"
12,117 to 122 °C,"C[C@H](NC(=O)Cc1cc(F)cc(F)c1)C(=O)N[C@@H]1C(=O)Nc2ccccc2S[C@@H]1c1ccsc1 [Example 100, N^2-[(3,5-Difluorophenyl)acetyl]-N^1-[(2R,3R)-4-oxo-2-(3-thienyl)-2,3,4,5-tetrahydro-1,5-benzothiazepin-3-yl]-L-alaninamide]"
13,130 to 140 °C,"C[C@H](NC(=O)Cc1cccc(F)c1)C(=O)N[C@@H]1C(=O)Nc2ccccc2O[C@@H]1c1ccccc1 [Example 115, N^2-[(3-Fluorophenyl)acetyl]-N^1-[(2R,3S)-4-oxo-2-phenyl-2,3,4,5-tetrahydro-1,5-benzoxazepin-3-yl]-L-alaninamide]"
14,145 to 155 °C,"C[C@H](NC(=O)Cc1cc(F)cc(F)c1)C(=O)N[C@@H]1C(=O)Nc2ccccc2S[C@@H]1c1cc(Br)cs1 [Example 104, N^1-[(2S,3R)-2-(4-Bromo-2-thienyl)-4-oxo-2,3,4,5-tetrahydro-1,5-benzothiazepin-3-yl]-N^2-[(3,5-difluorophenyl)acetyl]-L-alaninamide]"
15,85 to 90 °C,"CSCC[C@H](NC(=O)Cc1cc(F)cc(F)c1)C(=O)N[C@@H]1C(=O)Nc2ccccc2S[C@@H]1c1ccccc1 [Example 109, N^2-[(3,5-Difluorophenyl)acetyl]-N^1-[(2R,3R)-4-oxo-2-phenyl-2,3,4,5-tetrahydro-1,5-benzothiazepin-3-yl]-L-methioninamide]"
16,139 to 140 °C,"C[C@H](NC(=O)Cc1cc(F)cc(F)c1)C(=O)N[C@@H]1C(=O)Nc2ccccc2S[C@@H]1c1ccc(Br)s1 [Example 103, N^1-[(2S,3R)-2-(5-Bromo-2-thienyl)-4-oxo-2,3,4,5-tetrahydro-1,5-benzothiazepin-3-yl]-N^2-[(3,5-difluorophenyl)acetyl]-L-alaninamide]"
17,117 to 119 °C,"C[C@H](NC(=O)Cc1cc(F)cc(F)c1)C(=O)N[C@@H]1C(=O)Nc2ccccc2S[C@@H]1c1cccs1 [Example 99, N^2-[(3,5-Difluorophenyl)acetyl]-N^1-[(2S,3R)-4-oxo-2-(2-thienyl)-2,3,4,5-tetrahydro-1,5-benzothiazepin-3-yl]-L-alaninamide]"
18,115 to 120 °C,"C[C@H](NC(=O)Cc1cc(F)cc(F)c1)C(=O)N[C@@H]1C(=O)Nc2ccccc2S[C@H]1c1ccoc1 [Example 102, N^2-[(3,5-Difluorophenyl)acetyl]-N^1-[(2S,3R)-2-(3-furyl)-4-oxo-2,3,4,5-tetrahydro-1,5-benzothiazepin-3-yl]-L-alaninamide]"
